Laboratory results: patent publication US20150164910A1, “ANTIVIRAL COMPOUNDS AND METHODS OF USE” (The Regents of the University of Califonia, priority 2012, published 2015)

How the values were obtained:
[1] = system: eGFP-expressing recombinant CVB3; format: cell-based, coxsackievirus B3; settings: for Inhibition of infected cells: eGFP-CVB3 m.o.i=1, compound added at time of infection, 6 hr post infection, 1-(% eGFP+ cells with compound/% with DMSO only)
CVB3-H3 = assay: Plaque reduction assay, CVB3-H3 in HeLa-RW cells; format: cell-based, coxsackievirus B3; settings: compound added 30 min before infection, CVB3-H3 MOI 1, HeLa-RW, 6 hours; log10(titer with DMSO only/titer with inhibitor)

1-Isopropyl- N,6-diphenyl-1H- pyrazolo[3,4-b] pyridine- 4-carboxamide [Compound 16]
% of eGFP + cells, 0 Hr ([1]; compound added 0 hr post infection at its peak activity concentration, read 6 hr post infection, DMSO 26.0): 0.0% | % of eGFP + cells, 1 Hr ([1]; compound added 1 hr post infection at its peak activity concentration, read 6 hr post infection, DMSO 23.7): 0.1% | % of eGFP + cells, 2 Hr ([1]; compound added 2 hr post infection at its peak activity concentration, read 6 hr post infection, DMSO 24.8): 0.0% | Inhibition of infected cells [1]: 100% | Log10 reduction of virus titer (CVB3-H3): 4.5

Cc1ccc(F)cc1NC(=O)c1cc(-c2cccs2)nc2c1cnn2C(C)C [Compound 2, N-(5-Fluoro-2-methylphenyl)-1-isopropyl-6-(2-thienyl)-1H-pyrazolo[3,4-b] pyridine-4-carboxamide]
Inhibition of infected cells [1]: 99.6% | Log10 reduction of virus titer (CVB3-H3): 4.4

Cc1cc(F)ccc1NC(=O)c1cc(-c2cccs2)nc2c1cnn2C(C)C [Compound 4, N-(4-Fluoro-2-methylphenyl)-1-isopropyl-6-(2-thienyl)-1H-pyrazolo[3,4-b] pyridine-4-carboxamide]
Inhibition of infected cells [1]: 100% | Log10 reduction of virus titer (CVB3-H3): 4.5

Cc1ccc(NC(=O)c2cc(-c3cccs3)nc3c2cnn3C(C)C)c(F)c1 [Compound 5, N-(2-Fluoro-4-methylphenyl)-1-isopropyl-6-(2-thienyl)-1H-pyrazolo[3,4-b] pyridine-4-carboxamide]
Inhibition of infected cells [1]: 99.3% | Log10 reduction of virus titer (CVB3-H3): 4.4

CC(C)n1ncc2c(C(=O)Nc3ccc(F)cc3Cl)cc(-c3cccs3)nc21 [Compound 6, N-(2-Chloro-4-fluorophenyl)-1-isopropyl-6-(2-thienyl)-1H-pyrazolo[3,4-b] pyridine-4-carboxamide]
Inhibition of infected cells [1]: 99.5% | Log10 reduction of virus titer (CVB3-H3): 4.3

COc1ccc(NC(=O)c2cc(-c3cccs3)nc3c2cnn3C(C)C)cc1 [Compound 7, 1-Isopropyl-N-(4-methoxyphenyl)-6-(2-thienyl)-1H-pyrazolo [3,4-b]pyridine-4-carboxamide]
Inhibition of infected cells [1]: 99.5% | Log10 reduction of virus titer (CVB3-H3): 4.3

COc1cccc(NC(=O)c2cc(-c3cccs3)nc3c2cnn3C(C)C)c1 [Compound 8, 1-Isopropyl-N-(3-methoxyphenyl)-6-(2-thienyl)-1H-pyrazolo [3,4-b]pyridine-4-carboxamide]
Inhibition of infected cells [1]: 99.2% | Log10 reduction of virus titer (CVB3-H3): 4.4

Cc1ccc(NC(=O)c2cc(-c3cccs3)nc3c2cnn3C(C)C)cc1S(N)(=O)=O [Compound 9, 1-Isopropyl-N-(4-methyl-3-sulfamoylphenyl)-6-(2-thienyl)-1H-pyrazolo[3,4-b] pyridine-4-carboxamide]
Inhibition of infected cells [1]: 100% | Log10 reduction of virus titer (CVB3-H3): 4.5

CC(C)n1ncc2c(C(=O)Nc3cccc(S(C)(=O)=O)c3)cc(-c3cccs3)nc21 [Compound 10, 1-lsopropyl-N-[3-(methylsulfonyl)phenyl]-6-(2-thienyl)-1H-pyrazolo [3,4-b]pyridine-4-carboxamide]
Inhibition of infected cells [1]: 100% | Log10 reduction of virus titer (CVB3-H3): 4.4

Cc1ccc(NC(=O)c2cc(C3CC3)nc3c2cnn3C(C)C)cc1S(N)(=O)=O [Compound 11, 6-Cyclopropyl-1-isopropyl-N-(4-methyl-3-sulfamoylphenyl)-1H-pyrazolo[3,4-b]pyridine-4-carboxamide]
Inhibition of infected cells [1]: 99.6% | Log10 reduction of virus titer (CVB3-H3): 4.1

Cc1ccc(S(C)(=O)=O)cc1NC(=O)c1cc(C2CC2)nc2c1cnn2C(C)C [Compound 12, 6-Cyclopropyl-1-isopropyl-N-[2-methyl-5-(methylsulfonyl)phenyl]-1H-pyrazolo[3,4-b] pyridine-4-carboxamide]
Inhibition of infected cells [1]: 100% | Log10 reduction of virus titer (CVB3-H3): 4.2

CC1Oc2ccc(NC(=O)c3cc(C4CC4)nc4c3cnn4C(C)C)cc2NC1=O (stereo not drawn) [Compound 13, 6-Cyclopropyl-1-isopropyl-N-(2-methyl-3-oxo-3,4-dihydro-2H-1,4-benzoxazin-6-yl)-1H-pyrazolo [3,4-b]pyridine-4-carboxamide]
Inhibition of infected cells [1]: 100% | Log10 reduction of virus titer (CVB3-H3): 4.2

CC(C)n1ncc2c(C(=O)Nc3cccc(-c4nnc5n4CCCCC5)c3)cc(C3CC3)nc21 [Compound 14, 6-Cyclopropyl-1-isopropyl-N-[3-(6,7,8,9-tetrahydro-5H-[1,2,4]triazolo [4,3-a]azepin-3-yl)phenyl]-1H-pyrazolo [3,4-b]pyridine-4-carboxamide]
Inhibition of infected cells [1]: 100% | Log10 reduction of virus titer (CVB3-H3): 3.3

CC(C)c1cc(C(=O)Nc2ccccc2N2CCN(C)CC2)c2cnn(C(C)C)c2n1 [Compound 15, 1,6-Diisopropyl-N-[2-(4-methyl-1-piperazinyl)phenyl)-1H-pyrazolo[3,4-b]pyridine-4-carboxamide]
Inhibition of infected cells [1]: 100% | Log10 reduction of virus titer (CVB3-H3): 2.4

CC(C)n1ncc2c(C(=O)Nc3cccc(-c4nnco4)c3)cc(-c3ccccc3)nc21 [Compound 17, 1-Isopropyl-N-[3-(1,3,4-oxadiazol-2-yl)phenyl]-6-phenyl-1H-pyrazolo[3,4-b]pyridine-4-carboxamide]
Inhibition of infected cells [1]: 99.6% | Log10 reduction of virus titer (CVB3-H3): 4.3

CC(C)c1cc(C(=O)Nc2cccc(N3CCCC3=O)c2)c2cnn(C(C)C)c2n1 [Compound 18, 1,6-Diisopropyl-N-[3-(2-oxo-1-pyrrolidinyl)phenyl]-1H-pyrazolo[3,4-b]pyridine-4-carboxamide]
Inhibition of infected cells [1]: 97.9% | Log10 reduction of virus titer (CVB3-H3): 4.0

CCn1ncc2c(C(=O)Nc3ccc(C)c(S(N)(=O)=O)c3)cc(-c3cccs3)nc21 [Compound 19, 1-Ethyl-N-(4-methyl-3-sulfamoylphenyl)-6-(2-thienyl)-1H-pyrazolo[3,4-b] pyridine-4-carboxamide]
Inhibition of infected cells [1]: 100% | Log10 reduction of virus titer (CVB3-H3): 4.3

CCn1ncc2c(C(=O)Nc3ccc(C#N)cc3)cc(-c3cccs3)nc21 [Compound 20, N-(4-Cyanophenyl)-1-ethyl-6-(2-thienyl)-1H-pyrazolo [3,4-b]pyridine-4-carboxamide]
Inhibition of infected cells [1]: 99.6% | Log10 reduction of virus titer (CVB3-H3): 1.9

CC/C(C)=N\NC(=O)c1cc(-c2cccs2)nc2ccccc12 [Compound 24, N′-[(2Z)-2-Butanylidene]-2-(2-thienyl)-4-quinoline-carbohydrazide]
Inhibition of infected cells [1]: 100% | Log10 reduction of virus titer (CVB3-H3): 4.0

NNC(=O)c1cc(-c2ccccc2)nc2ccccc12 [Compound 26, 2-Phenyl-4-quinoline-carbohydrazide]
Inhibition of infected cells [1]: 98.7% | Log10 reduction of virus titer (CVB3-H3): 2.5

CCS(=O)(=O)c1ccc(NC(=O)c2cc(-c3ccccc3)nc3ccccc23)cc1 [Compound 27, N-[4-(Ethylsulfonyl)phenyl]-2-phenyl-4-quinoline-carboxamide]
Inhibition of infected cells [1]: 89.6% | Log10 reduction of virus titer (CVB3-H3): 3.4

CS(=O)(=O)c1ccc(NC(=O)c2cc(-c3ccc(F)cc3)nc3ccccc23)cc1 [Compound 28, 2-(4-Fluorophenyl)-N-[4-(methylsulfonyl)phenyl]-4-quinolinecarboxamide]
Inhibition of infected cells [1]: 99.6% | Log10 reduction of virus titer (CVB3-H3): 4.5

O=C(N/N=C/c1ccc(O)cc1)c1cc(-c2ccccc2)nc2ccccc12 [Compound 29, N′-[(E)-(4-Hydroxyphenyl)methylene]-2-phenyl-4-quinoline-carbohydrazide]
Inhibition of infected cells [1]: 100% | Log10 reduction of virus titer (CVB3-H3): 3.8

CC1Oc2ccc(NC(=O)c3cc(-c4cccs4)nc4ccccc34)cc2NC1=O (stereo not drawn) [Compound 30, N-(2-Methyl-3-oxo-3,4-dihydro-2H-1,4-benzoxazin-6-yl)-2-(2-thienyl)-4-quinolinecarboxamide]
Inhibition of infected cells [1]: 100% | Log10 reduction of virus titer (CVB3-H3): 4.1

CC(=O)c1c(C)nc2ccc(Cl)cc2c1-c1ccccc1 [Compound 31, 1-(6-Chloro-2-methyl-4-phenyl-3-quinolinyl)ethanone]
Inhibition of infected cells [1]: 94.5% | Log10 reduction of virus titer (CVB3-H3): 3.8

Cn1ccc(NC(=O)c2cc(-c3cccs3)nc3ccccc23)n1 [Compound 32, N-(1-Methyl-1H-pyrazol-3-yl)-2-(2-thienyl)-4-quinoline-carboxamide]
Inhibition of infected cells [1]: 100% | Log10 reduction of virus titer (CVB3-H3): 4.0

O=C(Nc1nc(CN2CCOCC2)cs1)c1cc(-c2ccc(Cl)s2)nc2ccccc12 [Compound 34, 2-(5-Chloro-2-thienyl)-N-[4-(4-morpholinylmethyl)-1,3-thiazol-2-yl]-4-quinoline-carboxamide]
Inhibition of infected cells [1]: 94.4% | Log10 reduction of virus titer (CVB3-H3): 3.5

CCCCOc1cc(C(=O)NCCN(CC)CC)c2ccccc2n1 [Compound 35, 2-Butoxy-N-[2-(diethylamino)ethyl]-4-quinoline-carboxamide, reference compound]
Inhibition of infected cells [1]: 100%

Cc1ccc2nc(N3CCN(Cc4nnnn4Cc4ccccc4)CC3)c(C#N)cc2c1 [Compound 36, 2-{4-[(1-Benzyl-1H-tetrazol-5-yl)methyl]-1-piperazinyl}-6-methyl-3-quinoline-carbonitnle]
Inhibition of infected cells [1]: 79.7% | Log10 reduction of virus titer (CVB3-H3): 1.0

Cc1ccc2cc(CN(Cc3ccc(F)cc3)C(=O)c3cccs3)c(=O)[nH]c2c1C [Compound 37, N-[(7,8-Dimethyl-2-oxo-1,2-dihydro-3-quinolinyl)methyl]-N-(4-fluorobenzyl)-2-thiophene-carboxamide]
Inhibition of infected cells [1]: 99.7% | Log10 reduction of virus titer (CVB3-H3): 4.2

Cc1nc(-c2cccc(NS(=O)(=O)c3ccc4c(c3)CCC(=O)N4)c2)cs1 [Compound 38, N-[3-(2-Methyl-1,3-thiazol-4-yl)phenyl]-2-oxo-1,2,3,4-tetrahydro-6-quinoline-sulfonamide]
Inhibition of infected cells [1]: 59.1% | Log10 reduction of virus titer (CVB3-H3): 0.9

Br.COc1ccc(C(=O)Cn2c(=N)n(Cc3ccc(C)cc3)c3ccccc32)cc1 [Compound 39, 1-[2-(4-Methoxyphenyl)-2-oxoethyl]-3-(4-methylbenzyl)-1,3-dihydro-2H-benzimidazol-2-iminium bromide]
Inhibition of infected cells [1]: 100% | Log10 reduction of virus titer (CVB3-H3): 0.3
